Data: PMC12627862, “Therapeutic targeting of endothelial calcium signaling accelerates the resolution of lung injury” (Signal Transduction and Targeted Therapy, 2025)
Starred links: 1 amine or outer side, 2 acyl side, 3 side chain; linkers in the order of their positions; H or OH if unused. Positions of bridges follow the written chain, without caps; N, C: chain ends. Non-standard residues stand in square brackets, D forms with d. Residues, ends and D or L forms follow the SMILES beside them. ξ: configuration not given here. X5 = O=C([C@@H]1[C@@H]2CCCC[C@@H]2CN1[*:1])[*:2]; X2 = C[C@@](CCCCC=[*:3])(N[*:1])C(=O)[*:2]; Leu(4,5-dehydro) = C=C(C)C[C@H](N)C(=O)O; Oic = O=C(O)[C@@H]1C[C@@H]2CCCC[C@@H]2N1; X4 = C=C(C)C[C@@H](N[*:1])C(=O)[*:2]; d(tBuAla) = CC(C)(C)C[C@@H](N)C(=O)O; dVal(3-OH) = CC(C)(O)[C@@H](N)C(=O)O; cisHyp = O=C(O)[C@@H]1C[C@H](O)CN1; tBuAla = CC(C)(C)C[C@H](N)C(=O)O; R5 = C=CCCC[C@@](C)(N)C(=O)O; X1 = O=C(CC(O)CN[*:1])[*:2]; 3Amb = NCc1cccc(C(=O)O)c1; 4Amb = NCc1ccc(C(=O)O)cc1; ξP = O=C(O)C1CCCN1

What was measured:
[1] = Aggregation / solubility at 1 mM; type: physicochemical; settings: summary calls it solubility at 1mM
Protocol: (§1) The solubilities of the synthesized compounds were determined experimentally (Supplementary Table 2). Most compounds were highly soluble at a 1 mM concentration; however, some compounds tended to form aggregates. These compounds were excluded from further studies. In addition, we experimentally determined the lipophilicity of each compound, logP(oct/wat)=log(soluteoct/solutewat ), which is the partition coefficient of a compound between aqueous (water) and lipophilic (octanol) phases (Supplementary Table 2).

[2] = Lipophilicity of peptides, logP(oct/wat); type: physicochemical
Protocol: as §1
Lipophilicity of peptides. Two separate solutions were obtained: an aqueous phosphate buffer with saturated n-octanol, and an n-octanol solution with saturated phosphate buffer. Peptides were then dissolved and diluted in the phosphate buffer. Different partitions were then made with different n-octanol to water ratio before shaking for an hour at room temperature. The aqueous phase and n-octanol were allowed to equilibrate, and each phase was extracted and analyzed for peptide concentrations. The ratio of peptide concentration in n-octanol to that in water is expressed as log(P).

[3] = biological target: EB3 interactions with IP3R3-GFP (Homo sapiens, UniProt Q9UPY8); assay: Competitive binding: inhibition of EB3 interaction with IP3R3-GFP in vitro; type: biochemical; settings: 250 nM
Excerpt: We tested the efficacy of twenty-three compounds in inhibiting EB3 interactions with IP3R3-GFP via an in vitro approach developed by us[12],[13]. […] Guided by NMR studies, we predicted the binding pose of 109 to EB3 via AutoDock Vina[13],[24],[25].

[4] = system: CD1 mice, cecal ligation and puncture; assay: Polymicrobial sepsis model (CLP); type: in vivo, mouse; settings: CLP 18-gauge; monotherapy: VT-109 0.5 µmol/kg bw or enrofloxacin 5 mg/kg bw

EB3 interactions with IP3R3-GFP, sequence (Q9UPY8 whole entry): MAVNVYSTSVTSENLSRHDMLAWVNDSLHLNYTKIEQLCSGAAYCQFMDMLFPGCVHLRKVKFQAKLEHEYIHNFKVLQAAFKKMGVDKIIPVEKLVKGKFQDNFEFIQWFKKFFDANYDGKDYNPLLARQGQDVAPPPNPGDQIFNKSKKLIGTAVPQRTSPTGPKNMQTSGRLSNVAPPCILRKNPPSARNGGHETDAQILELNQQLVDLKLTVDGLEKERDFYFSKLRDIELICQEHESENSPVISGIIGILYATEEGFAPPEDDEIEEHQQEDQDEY

Aggregation at 1mM [1] | logD [2] | inhibition at 0.25 µM [3] | Structure (SMILES) | survival [4]
weak signal | 0.44 | 12% | CC(C)(C)C[C@H](NC(=O)CC(O)CNC(=O)[C@@H]1C[C@@H]2CCCC[C@@H]2N1C(=O)[C@H](CC(C)(C)C)NC(=O)c1ccc(CNC(=O)[C@H](N)C(C)(C)O)cc1)C(=O)O (stereo partly drawn) [compound 103, (2S)-2-(4-((2S,3aS,7aS)-1-((S)-2-(4-(((R)-2-amino-3-hydroxy-3-methylbutanamido)methyl)benzamido)-4,4-dimethylpentanoyl)octahydro-1H-indole-2-carboxamido)-3-hydroxybutanamido)-4,4-dimethylpentanoic acid] (H-[dVal(3-OH)][4Amb][tBuAla][Oic][X1][tBuAla]-OH) | –
weak signal | 0.03 | 36% | CC[C@H](C)[C@H](NC(=O)[C@H](NC(=O)[C@@H]1C[C@H](O)CN1C(=O)[C@H](CC(C)(C)C)NC(=O)c1cccc(CNC(=O)[C@H](NC(=O)[C@@H](N)Cc2ccccc2)C(C)(C)O)c1)C(C)(C)O)C(=O)O [compound 042, ((R)-2-((2S,4S)-1-((S)-2-(3-(((R)-2-((S)-2-amino-3-phenylpropanamido)-3-hydroxy-3-methylbutanamido)methyl)benzamido)-4,4-dimethylpentanoyl)-4-hydroxypyrrolidine-2-carboxamido)-3-hydroxy-3-methylbutanoyl)-L-isoleucine] (H-F[dVal(3-OH)][3Amb][tBuAla][cisHyp][dVal(3-OH)]I-OH) | –
– | – | – | CCN1CCN(c2cc3c(cc2F)c(=O)c(C(=O)O)cn3C2CC2)CC1 [enrofloxacin, reference compound] | neither antibiotics nor VT-109 monotherapy (0.5 µmol/kg bw) significantly improved survival
weak signal | -0.89 | 40% | C=C(C)C[C@H](NC(=O)[C@H](CCC(=O)O)NC(=O)[C@H](NC(=O)[C@H](N)Cc1ccccc1)C(C)(C)O)C(=O)N1CCC[C@H]1C(=O)N[C@H](C(=O)N[C@H](C(=O)O)[C@@H](C)CC)[C@@H](C)O [compound 036, (S)-4-((R)-2-((R)-2-amino-3-phenylpropanamido)-3-hydroxy-3-methylbutanamido)-5-(((S)-1-((S)-2-(((2S,3R)-1-(((1S,2S)-1-carboxy-2-methylbutyl)amino)-3-hydroxy-1-oxobutan-2-yl)carbamoyl)pyrrolidin-1-yl)-4-methyl-1-oxopent-4-en-2-yl)amino)-5-oxopentanoic acid] (H-[dF][dVal(3-OH)]E[Leu(4,5-dehydro)]PTI-OH) | –
0.18 | 0.71 | 30% | CC[C@H](C)[C@H](NC(=O)CC(O)CNC(=O)[C@@H]1[C@@H]2CCCC[C@@H]2CN1C(=O)[C@H](CC(C)(C)C)NC(=O)c1cccc(CNC(=O)[C@H](NC(=O)[C@@H](N)Cc2ccccc2)C(C)(C)O)c1)C(=O)O (stereo partly drawn) [compound 041, (4-((1S,3aS,7aR)-2-((S)-2-(3-(((R)-2-((S)-2-amino-3-phenylpropanamido)-3-hydroxy-3-methylbutanamido)methyl)benzamido)-4,4-dimethylpentanoyl)octahydro-1H-isoindole-1-carboxamido)-3-hydroxybutanoyl)-L-isoleucine] | –
weak signal | -0.59 | 51% | C=C(C)C[C@H](NC(=O)[C@@H](NC(=O)[C@@H]1CCCN1C(=O)[C@H](CC(C)(C)C)NC(=O)[C@H](CCC(=O)O)NC(=O)[C@H](NC(=O)[C@H](N)Cc1ccccc1)C(C)(C)O)[C@@H](C)O)C(N)=O [compound 044, (S)-4-((R)-2-((R)-2-amino-3-phenylpropanamido)-3-hydroxy-3-methylbutanamido)-5-(((S)-1-((S)-2-(((2S,3R)-1-(((S)-1-amino-4-methyl-1-oxopent-4-en-2-yl)amino)-3-hydroxy-1-oxobutan-2-yl)carbamoyl)pyrrolidin-1-yl)-4,4-dimethyl-1-oxopentan-2-yl)amino)-5-oxopentanoic acid] (H-[dF][dVal(3-OH)]E[tBuAla]PT[Leu(4,5-dehydro)]-NH2) | –
1.39 | -1 | 45% | CC[C@@H](C)[C@H]1NC(=O)[C@H]([C@@H](C)O)NC(=O)C2CCCN2C(=O)[C@@H](CC(C)(C)C)NC(=O)[C@](C)(NC(=O)[C@@H](CCC(=O)O)NC(=O)[C@H](NC(=O)[C@H](N)Cc2ccccc2)[C@H](C)O)CCC/C=C\CCCC[C@@](C)(C(=O)N[C@@H](CCCNC(=N)N)C(=O)O)NC1=O (stereo partly drawn) [compound 028, (4R)-4-((2R,3S)-2-((R)-2-amino-3-phenylpropanamido)-3-hydroxybutanamido)-5-(((3S,6R,9S,19R,22R,Z)-6-((R)-sec-butyl)-9-(((S)-1-carboxy-4-guanidinobutyl)carbamoyl)-3-((R)-1-hydroxyethyl)-9,19-dimethyl-22-neopentyl-1,4,7,20,23-pentaoxo-2,3,4,5,6,7,8,9,10,11,12,13,16,17,18,19,20,21,22,23,25,26,27,27a-tetracosahydro-1H-pyrrolo[1,2-d][1,4,7,10,13]pentaazacyclopentacosin-19-yl)amino)-5-oxopentanoic acid] (H-[dF][dT][dE][R5][d(tBuAla)][ξP]T[dI][X2]R-OH; staple (Z) 4-9) | –
0.35 | -0.81 | 39% | CC[C@H](C)[C@H](NC(=O)[C@@H](NC(=O)[C@@H]1CCCN1C(=O)[C@@H](NC(=O)[C@H](CCC(=O)O)NC(=O)[C@@H](NC(=O)[C@H](N)Cc1ccccc1)[C@@H](C)O)[C@@H](C)CC)[C@@H](C)O)C(=O)O [compound 004, (S)-4-((2S,3R)-2-((R)-2-amino-3-phenylpropanamido)-3-hydroxybutanamido)-5-(((2S,3S)-1-((S)-2-(((2S,3R)-1-(((1S,2S)-1-carboxy-2-methylbutyl)amino)-3-hydroxy-1-oxobutan-2-yl)carbamoyl)pyrrolidin-1-yl)-3-methyl-1-oxopentan-2-yl)amino)-5-oxopentanoic acid] (H-[dF]TEIPTI-OH) | –
– | -0.71 | 52% | C=C(C)C[C@H](NC(=O)[C@@H](NC(=O)[C@@H]1CCCN1C(=O)[C@@H](CC(=C)C)NC(=O)[C@H](CCC(=O)O)NC(=O)[C@H](NC(=O)[C@H](N)Cc1ccccc1)C(C)(C)O)[C@@H](C)O)C(=O)O [compound 049, (S)-2-((2S,3R)-2-((S)-1-((R)-2-((S)-2-((R)-2-((R)-2-amino-3-phenylpropanamido)-3-hydroxy-3-methylbutanamido)-4-carboxybutanamido)-4-methylpent-4-enoyl)pyrrolidine-2-carboxamido)-3-hydroxybutanamido)-4-methylpent-4-enoic acid.] (H-[dF][dVal(3-OH)]E[X4]PT[Leu(4,5-dehydro)]-OH) | –
– | 0.67 | 50% | CC[C@H](C)[C@H](NC(=O)[C@H](NC(=O)[C@@H]1[C@@H]2CCCC[C@@H]2CN1C(=O)[C@H](CC(C)(C)C)NC(=O)[C@H](CCC(=O)O)NC(=O)[C@H](NC(=O)[C@@H](N)Cc1ccccc1)C(C)(C)O)C(C)(C)O)C(=O)O [compound 040, (S)-4-((R)-2-((S)-2-amino-3-phenylpropanamido)-3-hydroxy-3-methylbutanamido)-5-(((S)-1-((1S,3aS,7aR)-1-(((R)-1-(((1S,2S)-1-carboxy-2-methylbutyl)amino)-3-hydroxy-3-methyl-1-oxobutan-2-yl)carbamoyl)octahydro-2H-isoindol-2-yl)-4,4-dimethyl-1-oxopentan-2-yl)amino)-5-oxopentanoic acid.] (H-F[dVal(3-OH)]E[tBuAla][X5][dVal(3-OH)]I-OH) | –
– | -0.04 | 49% | CC[C@H](C)[C@@H]1NC(=O)[C@H]([C@@H](C)O)NC(=O)[C@@H]2CCCN2C(=O)[C@H]([C@@H](C)CC)NC(=O)[C@H](CCC(=O)O)NC(=O)[C@H]([C@@H](C)O)NC(=O)[C@H](Cc2ccccc2)NC1=O [compound 012, 3-((3S,6S,9S,12S,15S,18S,23aS)-9-benzyl-6,18-di((S)-sec-butyl)-3,12-bis((R)-1-hydroxyethyl)-1,4,7,10,13,16,19-heptaoxodocosahydro-1H-pyrrolo[1,2-a][1,4,7,10,13,16,19]heptaazacyclohenicosin-15-yl)propanoic acid.] (cyclo(EIPTIFT)) | –
– | -0.27 | 51% | CC[C@H](C)[C@@H]1NC(=O)[C@H]([C@@H](C)O)NC(=O)[C@@H]2CCCN2C(=O)[C@H]([C@@H](C)CC)NC(=O)[C@H](CCC(=O)O)NC(=O)[C@H]([C@@H](C)O)NC(=O)[C@H](Cc2ccccc2)NC(=O)CNC(=O)CNC(=O)[C@H]([C@@H](C)O)NC(=O)CC[C@@H](C(=O)O)NC(=O)[C@@H]2CCCN2C(=O)[C@H](CC(C)C)NC1=O [compound 013, (6S,9S,12S,15S,24S,29S,31aS,37S,40S,43S,45aS)-15-benzyl-6,40-di((S)-sec-butyl)-9-(2-carboxyethyl)-12,24,43-tris((R)-1-hydroxyethyl)-37-isobutyl-5,8,11,14,17,20,23,26,31,36,39,42,45-tridecaoxotetratetracontahydro-5H-dipyrrolo[2,1-c:2',1'-o][1,4,7,10,13,16,19,22,25,28,31,34,37]tridecaazacyclohentetracontine-29-carboxylic acid] (TGGFTEIPTILPE-OH; lactam N-13) | –
